Measurements: the supplement of paper PMC10307832

Key:
Dabrafenib + Dasatinib = compound: CC(C)(C)c1nc(-c2cccc(NS(=O)(=O)c3c(F)cccc3F)c2F)c(-c2ccnc(N)n2)s1 [Dabrafenib] + Cc1nc(Nc2ncc(C(=O)Nc3c(C)cccc3Cl)s2)cc(N2CCN(CCO)CC2)n1 [Dasatinib] (partner 0.075 µM); assay: relative viability (nuclei count vs DMSO), 5 days (fraction); higher = more cells survive
Procedure, shortened: (§1)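 Relative viability was taken as the ratio of nuclei in treated wells to nuclei in vehicle wells. Lung cancer cell lines in 1536-well plates received compounds by pin tool one day after seeding, either one drug alone or a fixed anchor-drug dose plus five library-drug doses (not always all listed) in √10 steps. Nuclei were counted on 4× images after 5 days of treatment, and values are medians of duplicate plates.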

Dabrafenib + Luminespib = compound: CC(C)(C)c1nc(-c2cccc(NS(=O)(=O)c3c(F)cccc3F)c2F)c(-c2ccnc(N)n2)s1 [Dabrafenib] + CCNC(=O)c1noc(-c2cc(C(C)C)c(O)cc2O)c1-c1ccc(CN2CCOCC2)cc1 [Luminespib] (partner 0.01 µM); assay: as above
Procedure, shortened: as §1

Cell Line	relative viability (Dabrafenib + Dasatinib; first compound 0.003 µM)	relative viability (Dabrafenib + Dasatinib; first compound 0.009487 µM)	relative viability (Dabrafenib + Dasatinib; first compound 0.09487 µM)	relative viability (Dabrafenib + Dasatinib; first compound 0.3 µM)	relative viability (Dabrafenib + Luminespib; first compound 0.003 µM)	relative viability (Dabrafenib + Luminespib; first compound 0.009487 µM)	relative viability (Dabrafenib + Luminespib; first compound 0.03 µM)	relative viability (Dabrafenib + Luminespib; first compound 0.09487 µM)	relative viability (Dabrafenib + Luminespib; first compound 0.3 µM)	relative viability (Dabrafenib + Dasatinib; first compound 0.03 µM)
NCI-H838	0.254	0.287	0.364	0.279	0.35	0.311	0.236	0.292	0.275	
NCI-H1355		0.692	0.651	0.703		0.83	0.611	0.628	0.69	0.749
NCI-H1395	0.375	0.462	0.409	0.366	0.663	0.755	0.661	0.657	0.567	0.396
NCI-H1437	0.281	0.372	0.39	0.482	1.15	1.13	1.17	1.17	1.14	0.256
NCI-H1563	0.408	0.46	0.461	0.456	0.48	0.491	0.508	0.515	0.574	0.459
NCI-H1623		0.521	0.611	0.619		0.534	0.479	0.579	0.553	0.585
NCI-H1650	0.263	0.376	0.327	0.378	0.172	0.201	0.229	0.221	0.188	0.425
NCI-H1651	0.355	0.411	0.442	0.435	0.65	0.87	0.789	0.831	0.608	0.373
NCI-H1666	0.84	0.775	0.809	0.822	0.988	0.995	1.04	0.997	1.11	0.798
NCI-H1734		0.478	0.313	0.387		0.175	0.207	0.203	0.198	0.454
NCI-H1755	0.419	0.38	0.403	0.337	0.407	0.542	0.434	0.519	0.577	0.405
NCI-H1792		0.839	0.857	0.905		0.474	0.412	0.423	0.538	0.892
NCI-H1793		0.503		0.399		0.231			0.175	
NCI-H1915	0.316	0.318	0.296	0.345	0.981	0.706	0.61	0.523	0.62	0.386
NCI-H1944	0.197	0.24	0.244	0.178	0.707	0.839	0.733	0.682	0.717	0.236
NCI-H1975	0.372	0.345	0.344	0.392	0.159	0.189	0.165	0.278	0.191	0.363
NCI-H1993	0.627	0.665	0.845	0.856	0.68	0.984	0.812	0.828	1.06	0.607
NCI-H2009	0.228	0.308	0.209	0.224	1.01	0.967	0.911	0.879	0.79	0.268
